Each block holds one molecule with its values, some of them ahead of it.
Legend:
[1] = target: T1, GlcNAc-phosphotransferase (UDP-GlcNAc: lysosomal enzyme GlcNAc alpha 1-phosphotransferase) (Homo sapiens, UniProt Q3T906); assay: radiometric transferase assay, QAE-Sephadex; type: biochemical; conditions: normal liver homogenate, range of three preparations, Mn2+, Mg2+, ATP, pH 7.4, 37 °C
T1 construct: gene GNPTAB; native enzyme in 600 g supernatant of human normal liver homogenate (autopsy tissue), not purified; alpha/beta precursor is cleaved into alpha and beta chains (alpha2beta2gamma2); with N-acetylglucosamine-1-phosphotransferase subunit gamma
T1 sequence (Q3T906 1-928): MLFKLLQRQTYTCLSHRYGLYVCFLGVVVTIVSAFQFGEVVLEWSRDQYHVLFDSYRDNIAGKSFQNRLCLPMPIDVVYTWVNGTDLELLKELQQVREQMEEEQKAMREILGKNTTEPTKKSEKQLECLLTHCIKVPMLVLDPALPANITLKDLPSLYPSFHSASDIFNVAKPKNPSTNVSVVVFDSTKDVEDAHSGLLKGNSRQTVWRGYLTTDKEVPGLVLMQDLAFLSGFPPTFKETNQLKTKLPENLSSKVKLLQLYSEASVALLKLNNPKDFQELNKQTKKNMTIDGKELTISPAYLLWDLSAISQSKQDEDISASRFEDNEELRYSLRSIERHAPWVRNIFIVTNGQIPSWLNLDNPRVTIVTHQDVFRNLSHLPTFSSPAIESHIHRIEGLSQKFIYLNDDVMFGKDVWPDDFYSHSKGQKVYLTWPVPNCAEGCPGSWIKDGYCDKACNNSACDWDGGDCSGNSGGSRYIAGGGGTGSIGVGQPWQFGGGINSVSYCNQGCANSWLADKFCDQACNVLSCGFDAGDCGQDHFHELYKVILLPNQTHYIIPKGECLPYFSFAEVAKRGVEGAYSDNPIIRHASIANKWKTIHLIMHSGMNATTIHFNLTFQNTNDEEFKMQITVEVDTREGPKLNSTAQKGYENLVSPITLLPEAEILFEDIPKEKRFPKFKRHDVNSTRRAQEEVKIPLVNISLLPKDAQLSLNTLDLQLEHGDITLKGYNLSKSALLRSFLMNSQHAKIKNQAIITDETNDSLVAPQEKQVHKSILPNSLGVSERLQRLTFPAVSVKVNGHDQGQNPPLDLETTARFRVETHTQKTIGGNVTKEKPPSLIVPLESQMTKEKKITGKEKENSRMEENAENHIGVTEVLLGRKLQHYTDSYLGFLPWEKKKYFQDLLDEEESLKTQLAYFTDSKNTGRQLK
T1 sequence (Q3T906 929-1256): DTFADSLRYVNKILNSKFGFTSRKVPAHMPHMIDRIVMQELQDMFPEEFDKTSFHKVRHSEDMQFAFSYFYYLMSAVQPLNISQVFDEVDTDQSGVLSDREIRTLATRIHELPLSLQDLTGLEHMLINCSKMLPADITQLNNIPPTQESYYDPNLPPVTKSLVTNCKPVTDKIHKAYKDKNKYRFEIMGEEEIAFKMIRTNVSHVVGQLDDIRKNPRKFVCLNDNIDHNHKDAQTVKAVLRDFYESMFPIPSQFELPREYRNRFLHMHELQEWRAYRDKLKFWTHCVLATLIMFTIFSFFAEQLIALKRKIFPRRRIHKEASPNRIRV
T1 sequence (Q9UJJ9 25-305 partner): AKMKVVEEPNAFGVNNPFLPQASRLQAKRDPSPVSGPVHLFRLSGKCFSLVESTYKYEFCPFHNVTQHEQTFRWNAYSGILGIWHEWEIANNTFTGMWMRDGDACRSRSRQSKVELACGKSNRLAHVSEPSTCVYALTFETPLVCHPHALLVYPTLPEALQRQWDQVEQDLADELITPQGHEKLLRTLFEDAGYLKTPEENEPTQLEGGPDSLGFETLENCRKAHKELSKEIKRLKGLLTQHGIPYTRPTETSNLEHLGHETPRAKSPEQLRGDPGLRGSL

[2] = target: T2, phosphodiester glycosidase (phosphodiester alpha-N-acetylglucosaminidase) (Homo sapiens, UniProt Q9UK23); assay: radiometric release of [3H]GlcNAc, QAE-Sephadex; type: biochemical; conditions: liver homogenate; Triton X-100, N-acetylmannosamine, EDTA, pH 7.4, 37 °C; labelled compound
T2 construct: gene NAGPA; native enzyme in 600 g supernatant of human normal liver and hepatoma homogenates, not purified
T2 sequence (Q9UK23 50-515): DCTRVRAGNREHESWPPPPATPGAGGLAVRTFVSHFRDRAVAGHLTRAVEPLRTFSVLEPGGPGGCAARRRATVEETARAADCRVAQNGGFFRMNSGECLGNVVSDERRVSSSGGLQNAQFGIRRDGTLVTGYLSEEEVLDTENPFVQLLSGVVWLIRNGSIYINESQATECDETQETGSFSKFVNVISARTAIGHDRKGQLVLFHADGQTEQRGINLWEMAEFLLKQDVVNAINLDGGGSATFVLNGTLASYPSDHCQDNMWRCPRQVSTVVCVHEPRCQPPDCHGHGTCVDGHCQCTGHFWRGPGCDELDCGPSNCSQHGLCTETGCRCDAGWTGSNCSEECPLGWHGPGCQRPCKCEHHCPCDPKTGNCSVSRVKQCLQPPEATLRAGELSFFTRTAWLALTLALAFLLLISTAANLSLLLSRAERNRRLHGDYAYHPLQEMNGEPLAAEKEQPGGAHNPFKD

Km ([1]; acceptor alpha-methylmannoside, labelled compound): 0.027 to 0.037 mM
SMILES: CC(=O)N[C@H]1[C@@H](OP(=O)(O)OP(=O)(O)OC[C@H]2O[C@@H](n3ccc(=O)[nH]c3=O)[C@H](O)[C@@H]2O)O[C@H](CO)[C@@H](O)[C@@H]1O [UDP-GlcNAc]

SMILES: CO[C@H]1O[C@H](COP(=O)(O)O[C@H]2O[C@H](CO)[C@@H](O)[C@H](O)[C@H]2NC(C)=O)[C@@H](O)[C@H](O)[C@@H]1O [[6-3H]GlcNAc-P-6-(alpha-methyl)mannoside]
radiometric release of [3H]GlcNAc, QAE-Sephadex [2]: amount of the labelled substrate used for the glycosidase assay was not sufficient to measure Km

Km ([1]; co-substrate [beta-32P]UDP-GlcNAc): 50 to 100 mM
SMILES: CO[C@H]1O[C@H](CO)[C@@H](O)[C@H](O)[C@@H]1O [alpha-methylmannoside]

From paper PMC1972543, “Elevated carbohydrate phosphotransferase activity in human hepatoma and phosphorylation of cathepsin D” (British Journal of Cancer, 1991)
